Data taken from PubChem BioAssay AID1341 (NMMLSC, 2008).
Where “and” joins values, the source holds several entries; their conditions need not be identical. Identical values can stand only once.

biological target: GTPase HRas (Homo sapiens) (UniProt P01112); assay: blockade of GTP loading onto mutant Ras – biochemical, activated mutant, multiplex bead flow cytometry, dose response (AID 1341); settings: bead-based flow cytometry, Bodipy-FL-GTP binding;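 further: GST-tagged constitutively activated Ras mutant immobilized on beads and multiplexed with other GTPases; potency for blocking fluorescent GTP binding to Ras so compounds act as competitors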

EC50	Structure (SMILES)
144 nM and 145 nM	CC1(C)Cc2c(sc(NC(=S)NC(=O)c3ccccc3)c2C(=O)O)CO1
11000 nM	Cc1cc(NC(=O)CSc2nc(-c3ccccc3)c(C#N)c(=O)[nH]2)no1
430 nM	Cc1cc(C(=O)O)sc1CNCc1ccccc1Cl
5960 nM	COc1ccc(C(=O)c2c(O)cc(-c3ccc(OC)cc3)oc2=O)cc1
1970 nM	N#Cc1c(-c2ccccc2)nc(SCC(=O)Nc2ccccc2)[nH]c1=O
634 nM	CC(C)Cc1csc(NC(=O)c2ccccc2Cl)c1C(=O)O
195 nM	Cc1ccc(C)c(OCCn2cc(C(=O)O)c3ccccc32)c1
2460 nM	CC(=O)c1c(C)[nH]c(C(=O)N2CCc3ccccc3C2)c1C
